According to patent publication US20160123988A1, “METHOD OF TRACELESS LABELING GLYCOPROTEINS ON SURFACE AND APPLICATION THEREOF” (NATIONAL SUN YAT-SEN UNIVERSITY, priority 2014, published 2016):

What was measured:
fetuins = biological target: T1, fetuins (Bos taurus, UniProt P12763); test: Labeling of fetuins by probes, biotinylation, SDS-PAGE and Western blotting with anti-biotin antibody; assay type: biochemical, calf; conditions: probe 40 μM, fetuins 20 μM, 37° C., 48 h; FIG. 3
T1 construct: Fetuin (from fetal calf serum) and RNase B (from bovine pancreas) were purchased from Sigma-Aldrich; purchased Sigma-Aldrich; host or cells: fetal calf serum (natural source)
T1 sequence (P12763 19-359): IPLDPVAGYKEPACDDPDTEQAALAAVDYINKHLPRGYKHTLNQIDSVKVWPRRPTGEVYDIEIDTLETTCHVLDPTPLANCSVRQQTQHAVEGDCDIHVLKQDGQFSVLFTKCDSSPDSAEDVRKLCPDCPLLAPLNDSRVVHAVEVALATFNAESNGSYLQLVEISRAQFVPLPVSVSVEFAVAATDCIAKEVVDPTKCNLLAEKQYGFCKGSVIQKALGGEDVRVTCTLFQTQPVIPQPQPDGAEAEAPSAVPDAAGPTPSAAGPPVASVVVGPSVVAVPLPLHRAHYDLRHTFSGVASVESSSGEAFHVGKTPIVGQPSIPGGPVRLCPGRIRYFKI
Experimental: A solution of fetuins (10 μM) was incubated with BA-tosyl probes 1-3 (50 μM) in PBS buffer (0.1 M, pH 8.0) at 37° C. for 48 h. Then, the unreacted BA-tosyl probes were removed by centrifugal filtration (Amicon Ultra-0.5 mL 10K) at 15,000 rpm, followed by washing five times with PBS buffer (300 μL). The resultant alkyne-tagged fetuins (11.53 μL, 26.28 μg/μL) were collected and treated with azido biotin (20 μL, 1 mM) in PBS buffer (44.47 μL, pH 8.0, 0.1 M). Then, the mixture was treated with tris(carboxyethyl)phosphine (TCEP, 0.1 M, 2 μL) and tris[(1-benzyl-1H-1,2,3-triazol-4-yl)methyl]amine (TBTA, 0.01 M, 20 μL) with gentle shaking. After homogeneous mixing, CuSO4 (0.1 M, 2 μL) was added, and the reaction mixture was shaken at RT for 12 h. The excess reactants were removed by centrifugal filtration at 15,000 rpm, and the biotinylated fetuins were obtained.
To evaluate the specificity of synthetic BA-tosyl probes, BA-tosyl 1-3, aniline-tosyl 7, and BA-alkyne 8 (40 μM) were incubated with fetuins (20 μM), blood glycoproteins carrying triantennary glycan chains with terminal N-acetylneuraminic acids, at 37° C. for 48 h. The unreacted chemical probes were then removed by centrifugal filtration or size-exclusion column chromatography to obtain the alkyne-labeled fetuins. Azido biotin was then used to form biotinylated fetuins via Cu(I)-catalyzed 1,2,3-triazole cycloaddition. […]

RNase B = biological target: T2, RNase B (Bos taurus, UniProt P61823); test: Immobilization of RNase B on functionalized slides, read out with Con A-FITC fluorescence; assay type: biochemical, bovine; conditions: for Con A-FITC signal of RNase B on probe-functionalized slides: slides incubated with RNase B then treated with glycerol, compared to BA-tosyl-treated slides, FIG. 6(b), 6(c); for Con A-FITC intensity after release of BA-tosylate by polyol: RNase B on BA-tosyl slides, glycerol 10%, sorbitol 100 mM, compared to galactose 100 mM, FIG. 6(a)
T2 construct: Fetuin (from fetal calf serum) and RNase B (from bovine pancreas) were purchased from Sigma-Aldrich; purchased Sigma-Aldrich; host or cells: bovine pancreas (natural source)
T2 sequence (P61823 27-150): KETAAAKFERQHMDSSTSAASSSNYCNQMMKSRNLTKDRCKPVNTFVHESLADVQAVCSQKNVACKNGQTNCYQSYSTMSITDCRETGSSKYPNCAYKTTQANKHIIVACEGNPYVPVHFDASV
Experimental: The aforementioned azide-functionalized slide was rinsed twice with sodium phosphate buffer (25 mM, pH 8.0) and immersed in the same buffer (45 mL). To effect the Cu(I)-catalyzed 1,2,3-triazole cycloaddition, BA-tosyl 1 (or compound 7 or 8) was added to the reaction mixture to afford a final concentration of 5 mM and treated with TCEP (2 mM) and TBTA (2 mM). Then, an aqueous solution of CuSO 4 (100 mM) was added to the reaction mixture to give a final concentration of 4 mM, and the mixture was allowed to react at RT. After 12 h, the slide was washed three times with PBS and twice with distilled deionized water (ddH2O) to obtain BA-tosyl 1 (or compound 7 or 8)-functionalized slides.
Fluorescein-labeled lectins (Con A-FITC and WGA-FITC, 10 μM in PBS containing 5 mM CaCl2 and 5 mM MnCl2) were incubated with the glycoprotein microarray at RT for 1 h. Then, the slide was washed three times with PBS containing 10% glycerol and twice with ddH2O. Finally, the slide was dried under warm air and subjected to fluorescence analysis.
To quantitatively evaluate the protein-glycoprotein interactions, the lectin-glycoprotein complexes were analyzed by measuring the fluorescence intensities of the fluorescein tags. The fluorescence signals were directly detected by a NovaRay Microarray Scanner with an FITC filter, and were subsequently analyzed using ArrayVision software.
Glycoproteins in ddH2O containing 20% dimethyl sulfoxide (DMSO) were spotted onto the surface of the functionalized slide. To immobilize glycoproteins on the slides, an AD1500 arrayer (Biodot) was used to print samples of interest onto the functionalized slide with a spot volume of 20 nL under 85% relative humidity at 25° C. The protein sample was allowed to incubate at 25° C. for 12 h, and the glycoprotein solution was then removed by decanting the reaction mixture. The slide was incubated with ddH2O containing 10% glycerol for 30 min, followed by washing twice with the same solution (ddH2O with 10% glycerol). The slide was further treated with 10 mM imidazole solution (Tris buffer, 10 mM NaCl, pH 7.4) for 30 min to block unreacted BA-tosyl groups. The obtained glycoprotein micro-array was then washed three times by PBS (pH 7.4) and was ready for advanced use.
To evaluate the details of the immobilization mechanism, ribonuclease B (RNase B), carrying a single N-glycan chain composed of high mannose isomers, was spotted onto BA-tosyl-functionalized slides and allowed to incubate at 25° C. for 12 h. The slides were then individually treated with three different polyols in phosphate buffered saline (PBS) to competitively release the BA-tosylate. Glycerol (10%), galactose (100 mM), and sorbitol (100 mM) were used. […]

C#CCCCOS(=O)(=O)c1cc(C=O)cc(C(=O)Nc2ccccc2)c1 [aniline-tosyl 7]
Western blot band of biotin-labeled fetuins (labeling of fetuin) (fetuins): much weaker signal | Con A-FITC signal of RNase B on probe-functionalized slides (RNase B): very low signal intensity | Con A-FITC signal of RNase B on probe-functionalized slides (RNase B; listed as 7): nearly background-level signals

OCC(O)CO [glycerol]
Con A-FITC intensity after release of BA-tosylate by polyol (RNase B): twice the intensity

OC[C@@H](O)[C@@H](O)[C@H](O)[C@@H](O)CO [sorbitol]
Con A-FITC intensity after release of BA-tosylate by polyol (RNase B): twice the intensity
